In patent US20080249024A1, “Peptides facilitating or inhibiting a nterograde transport” (priority 2006, published 2008):
“And” between values parts separate entries of the source, which are not always exact repeats. Equal values may be shown once. Read-outs that look alike come from different tables or passages of the source. Blank lines part the entries; values can stand above or below the molecule they belong to.

Tests used:
[1] = system: giant axon; test: Comparison of velocity of JIP and APP peptide beads and carboxylated negative charge beads in the giant axon (Metamorph); format: cell-based, squid
Description: (§1) JIP peptide was conjugated to 100 nm fluorescent nanospheres (beads) following the protocol described in Example 1. Washed conjugated beads were injected into a freshly dissected giant squid axon and transport imaged by confocal microscopy.
Movements of beads conjugated to APP-C, JIP, or unconjugated (negative charge) after injection in the axon were measured using Metamorph imaging software (Molecular Devices). Average velocity of JIP beads was 20% faster than APP or negative charge. As is known, negative charge beads are transported in the axon but less frequently than peptide-conjugated beads.
The different surfaces of the beads influence the average rate of movements. In this experiment, movements between frames were measured only when beads moved into and out of the frame.

[2] = target: T1, kinesin 3 (Kif1a) (Rattus norvegicus, UniProt F1M4A4); test: Peptide-bead pull-down from rat brain extract, Western blot for kinesin 3; format: binding; settings: Western blot of beads and supernatants
T1 construct: tissue Pelco; host or cells: rat brain cortex extract
Description: (§2) Rat brain extract was prepared from frozen rat brain (Pelco). Rat brain was cut from a frozen block of cortex, weighed, and solubilized in 1% Triton and buffer with sonication (3 times 1 sec bursts with a Branson sonicator set at microtip 4). After clarifying centrifugation at 15,000×g for 15 min, 10 μl of extract in pulldown buffer (Lazarov et al. 2005, supra) was layered over carboxylated beads conjugated to various peptides according to the manufacturer's instructions (Dynal).

[3] = system: giant squid axon; test: JIP peptide-coated bead transport in giant squid axon, confocal microscopy; format: cell-based; settings: injection site imaged at 0 and 55 min
Description: as §1

[4] = system: giant axon of the squid; test: Transport of peptide- or protein-conjugated fluorescent beads injected into the squid giant axon, confocal time-lapse; format: cell-based, squid (Loligo pealei); settings: for Max. Velocity / Ave. Velocity (instantaneous): beads conjugated to peptide/protein; for Ave. Velocity (instantaneous): number of moves in brackets; for transport behaviour of conjugated beads in the axon (in words): co-injected with other beads into the same axon; for beads leaving the injection site per minute: 10^6 beads injected
Description: The giant axon was obtained from squid (Loligo pealei) at the Marine Biological Laboratory, Woods Hole, Mass. (46). Red and green beads, each conjugated to a different peptide (1.5 nl at […]), were loaded into a mercury micropipette either as a mixture or in equal volumes separated by oil (Bearer, E. L., et al., (2000) Proc Natl Acad Sci USA 97, 8146-50; Terasaki, M., S. et al., (1995) Proc Natl Acad Sci U S A 92, 11500-3; Jaffe, L. A. & Terasaki, M. (2004) Methods Cell Biol 74, 219-42, FIG. S1). For each pair of beads the order of injection was alternated such that each color would have an opportunity to recruit motors first.
Carboxylated microspheres (beads, 0.1 μm diameter) with red (580/605 nm) and green (505/515 nm) fluorescence (Invitrogen) were washed through a Low Binding Durapore filter (100 nm cut-off, Millipore). Uncoated beads were diluted in motility buffer (Brady, S. et al., (1982) Science 218, 1129-31) and injected without further treatment.
Custom synthesized peptides (Aves Labs, Inc) were cross-linked to beads via their amino terminus to allow presentation of the carboxy end of the peptide to the cytoplasm, mimicking the physiological orientation of APP. APP constructs (C99 and APP-680) were generated by PCR from human APP-YFP in pShuttleCMV (E.-M. Mandelkow and Jacek Biernat, Max Planck Institute, Hamburg, Germany (Stamer, K., V. et al., (2002) J Cell Biol 156, 1051-63)). APP-YFP is actively transported in neurons (Stamer et al., supra). For C99, the YFP moiety was replaced with mRFP (Campbell, R. E., et al., (2002) Proc Natl Acad Sci USA 99, 7877-82.) and for APP-680 with GFP. Each construct was cross-linked to a bead of similar spectrum as the fluorescent protein, and conjugated beads individually checked for monochromic emission by confocal. […] Accuracy of all sequences was confirmed by sequencing. Recombinant protein was generated in PC12 cells and purified by anti-fluorescent protein affinity columns (Vector Labs). Protein concentrations were determined by Bio-Rad protein assay, and composition and purity determined by SDS-PAGE.
Peptides or recombinant proteins (20 μl of a 2 mg/ml stock) were mixed in 300 μl of 50 mM MES buffer with 10 μl of 2% beads for 15 min. Cross-linker (1-(3-dimethylaminopropyl)-3-ethylcarbodiimide hydrochloride; EDAC, Molecular Probes) was added to a concentration of 10 μg/ml and the solution adjusted to pH 6.5 with 1M NaOH. After 5 hr the reaction was quenched by adding 2M glycine for a final of 0.1M. Conjugation was confirmed by analyzing peptide concentrations before and after by protein assay. Protein:bead ratio was adjusted that equivalent molar amounts of each protein would be conjugated to the beads. Efficiency of conjugation was relatively similar for all peptides. Binding sites on the beads (10^6) were saturated by using 300-1000 fold excess peptide. For C99 and APP-680, protein concentration was adjusted so that 3,000 copies per bead were conjugated to the surface and unoccupied sites blocked with glycine.
Detection parameters were set to ensure that each color was uniquely detected in its appropriate channel by imaging beads on coverslips with the Zeiss LSM 510 Laser Scanning Confocal Microscope. Fluorescent bead movements in the axon were collected with 10× Plan Neofluor 0.3NA air, and 40× Achroplan 0.8NA water correctible objectives. Green and red fluorescence and phase images were collected simultaneously using Zeiss LSM510 multi-tracking.
Rates and trajectories of APP-C beads were measured by stepping through the frames in either the Zeiss LSM browser or NIH ImageJ (http://rsb.info.nih.gov/nih-image/). Only particles moving into and out of a frame were included. Rates of moving particles were statistically analyzed and graphed using Microsoft Excel.

[5] = system: kinesin 1 heavy chain; test: Peptide-bead pull-down from rat brain extract, Western blot for kinesin 1; format: binding; settings: Western blot of beads and supernatants
Description: as §2

[6] = target: axoplasmic motors (squid giant axon); test: cell-based or functional assay
[7] = target: axoplasmic motors (squid giant axon); test: cell-based or functional assay; remark: listed apart in the source

T1 sequence (F1M4A4 whole entry): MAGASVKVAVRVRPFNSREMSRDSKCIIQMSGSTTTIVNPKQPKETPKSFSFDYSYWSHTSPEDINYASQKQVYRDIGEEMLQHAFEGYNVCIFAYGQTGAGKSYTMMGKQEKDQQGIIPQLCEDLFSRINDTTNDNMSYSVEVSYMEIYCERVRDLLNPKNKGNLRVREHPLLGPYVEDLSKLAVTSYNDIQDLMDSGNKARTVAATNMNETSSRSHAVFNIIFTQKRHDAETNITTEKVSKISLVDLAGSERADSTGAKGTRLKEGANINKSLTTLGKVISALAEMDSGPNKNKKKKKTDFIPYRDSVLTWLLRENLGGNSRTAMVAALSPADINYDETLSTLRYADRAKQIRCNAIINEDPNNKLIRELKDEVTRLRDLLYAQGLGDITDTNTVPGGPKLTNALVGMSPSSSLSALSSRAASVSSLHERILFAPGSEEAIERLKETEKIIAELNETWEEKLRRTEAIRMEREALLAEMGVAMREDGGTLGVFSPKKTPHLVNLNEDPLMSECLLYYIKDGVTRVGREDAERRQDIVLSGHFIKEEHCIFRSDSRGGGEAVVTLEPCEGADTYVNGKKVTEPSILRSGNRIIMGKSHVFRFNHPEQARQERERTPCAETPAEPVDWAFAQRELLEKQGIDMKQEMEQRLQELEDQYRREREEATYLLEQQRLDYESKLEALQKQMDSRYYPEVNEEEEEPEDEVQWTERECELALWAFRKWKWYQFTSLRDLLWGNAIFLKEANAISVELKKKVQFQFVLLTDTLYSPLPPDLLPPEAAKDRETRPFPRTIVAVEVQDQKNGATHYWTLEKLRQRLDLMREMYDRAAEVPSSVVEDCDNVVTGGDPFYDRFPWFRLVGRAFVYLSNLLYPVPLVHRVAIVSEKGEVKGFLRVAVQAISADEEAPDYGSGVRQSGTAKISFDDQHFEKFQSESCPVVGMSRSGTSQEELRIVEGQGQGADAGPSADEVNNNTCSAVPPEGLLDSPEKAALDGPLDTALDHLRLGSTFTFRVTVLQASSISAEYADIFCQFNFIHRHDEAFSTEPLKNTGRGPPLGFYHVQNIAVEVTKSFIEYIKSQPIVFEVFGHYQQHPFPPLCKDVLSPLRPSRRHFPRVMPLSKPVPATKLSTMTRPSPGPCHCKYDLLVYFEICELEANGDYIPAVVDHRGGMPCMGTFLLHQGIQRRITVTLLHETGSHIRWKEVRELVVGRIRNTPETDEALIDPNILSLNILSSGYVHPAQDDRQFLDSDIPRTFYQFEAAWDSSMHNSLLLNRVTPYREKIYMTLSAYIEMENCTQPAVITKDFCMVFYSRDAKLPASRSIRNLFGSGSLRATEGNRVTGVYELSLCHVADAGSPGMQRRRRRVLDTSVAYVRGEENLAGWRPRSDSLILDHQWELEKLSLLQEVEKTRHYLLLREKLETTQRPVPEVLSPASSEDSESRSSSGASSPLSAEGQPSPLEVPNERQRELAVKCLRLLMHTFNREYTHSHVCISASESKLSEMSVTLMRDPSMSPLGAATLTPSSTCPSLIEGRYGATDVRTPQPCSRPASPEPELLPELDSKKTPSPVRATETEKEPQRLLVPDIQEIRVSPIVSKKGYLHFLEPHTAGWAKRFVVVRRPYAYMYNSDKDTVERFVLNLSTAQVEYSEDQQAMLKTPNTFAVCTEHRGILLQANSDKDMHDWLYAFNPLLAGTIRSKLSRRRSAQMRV

Molecule: FVE YTC PTE DIY LE (FVEYTCPTEDIYLE) [JIP-1]
average velocity faster than APP or negative charge beads [1]: 20% | speed relative to negative charge beads (in words) [1]: almost twice as fast | Max velocity ([1]; beads in the giant axon): 0.96 μm/sec | Ave velocity ([1]; instantaneous velocity of beads in the axon, only beads moving into and out of the frame): 0.5 +/− 0.01 μm/sec | pull-down of kinesin 3 (Kif1a) from brain extract [2]: preferentially pulls down kinesin 3 (Kif1a) | transport of JIP beads in the axon (in words) [3]: a stream of beads can be seen heading towards the synapse

Molecule: GYENPTYKFFEQMQN (listed as Homo sapiens) [APP-C, tested conjugated to beads or as soluble peptide]
Max. Velocity [4]: 0.9 μm/s | Ave. Velocity (instantaneous) [4]: 0.41 +/− 0.07 (227) μm/s | pull-down of kinesin 1 heavy chain from brain extract [5]: preferentially bind to kinesin 1 heavy chain

Molecule: GYENPTYKYFE-MQN (GYENPTYKYFEMQN; listed as Loligo pealei) [APP-C (squid)]
Max. Velocity [4]: 0.9 μm/s | Ave. Velocity (instantaneous) [4]: 0.53 +/− 0.09 (54) μm/s

Molecule: C99: recombinant C-terminal 99 amino acids of human APP with mRFP, full cytoplasmic domain; 3,000 copies per 100 nm bead
percent of beads that move, with peptide ([4]; axon pre-injected with soluble APP-C peptide, average of 3 100-frame videos): 10.3%+/−4.4 | Max. Velocity [4]: 1.46 μm/s | Ave. Velocity (instantaneous) [4]: 0.66+/−0.08 μm/s and 0.66 +/− 0.08 (194) μm/s | transport behaviour of conjugated beads in the axon (in words) [4]: both types of beads were transported | percent of beads that move ([4]; without peptide, moving = translocated >3 consecutive frames, average of 3 100-frame videos, within 500 μm of injection site): 39.5%+/−4.5

Molecule: GEPYFEMNYNTKFQQ (listed as Homo sapiens) [APP-C^j, reference compound]
beads leaving the injection site per minute [4]: None

Molecule: HMNCQNGKWDSDPSGTKTCI (listed as Homo sapiens) [APP-N, reference compound]
beads leaving the injection site per minute [4]: ~0.001 ×10^3 per minute | transport behaviour of conjugated beads in the axon (in words) [4]: remained stationary at the injection site

percent of beads that move (squid giant axon, no peptide) [6]: 39.5% | percent of beads that move after pre-injection of soluble APP-C peptide [6]: 10.3%
Molecule: C99, a polypeptide containing the C-terminal 99 amino acids of human APP (with mRFP in place of YFP) (from UniProt P05067 597-695)

percent of beads that move (squid giant axon, no peptide) [7]: 36% | percent of beads that move after pre-injection of soluble APP-C peptide [7]: 0%
B1: APP-C peptide (hAPP-C, final 15 amino acids of the cytoplasmic C-terminus of human/rat APP, aa 681-695 of APP695) (peptide)
peptide: GYENPTYKFFEQMQN
